# Experimental data from paper PMC8470274, “Comprehensive Investigation of Stereoselective Food Drug Interaction Potential of Resveratrol on Nine P450 and Six UGT Isoforms in Human Liver Microsomes” (Pharmaceutics, 2021).
# Read-outs that look alike come from different tables or passages of the source.
# What was measured:
# [1] = target: T1, CYP3A; assay: HLM inhibition kinetics, Dixon / Lineweaver-Burk, LC-MS/MS; assay type: biochemical, Homo sapiens; settings: midazolam 0.1-2 µM; NADPH-generating system; without preincubation; noncompetitive; read-out: trans-Resveratrol / Without Preincubation / Ki
# T1 construct: gene CYP3A4; native CYP3A in pooled human liver microsomes, read by midazolam 1'-hydroxylation (nifedipine as second probe)
# [2] = target: T2, UGT1A3 (Homo sapiens, UniProt P35503); assay: HLM UGT substrate cocktail, LC-MS/MS; assay type: biochemical; settings: chenodeoxycholic acid 2 µM; UDPGA 5 mM; alamethicin; 0.25 mg/mL HLM; 37 °C; read-out: Trans-Resveratrol
# T2 construct: native enzyme in pooled human liver microsomes (alamethicin-treated), read by chenodeoxycholic acid 24-glucuronidation
# T2 sequence (P35503 29-534): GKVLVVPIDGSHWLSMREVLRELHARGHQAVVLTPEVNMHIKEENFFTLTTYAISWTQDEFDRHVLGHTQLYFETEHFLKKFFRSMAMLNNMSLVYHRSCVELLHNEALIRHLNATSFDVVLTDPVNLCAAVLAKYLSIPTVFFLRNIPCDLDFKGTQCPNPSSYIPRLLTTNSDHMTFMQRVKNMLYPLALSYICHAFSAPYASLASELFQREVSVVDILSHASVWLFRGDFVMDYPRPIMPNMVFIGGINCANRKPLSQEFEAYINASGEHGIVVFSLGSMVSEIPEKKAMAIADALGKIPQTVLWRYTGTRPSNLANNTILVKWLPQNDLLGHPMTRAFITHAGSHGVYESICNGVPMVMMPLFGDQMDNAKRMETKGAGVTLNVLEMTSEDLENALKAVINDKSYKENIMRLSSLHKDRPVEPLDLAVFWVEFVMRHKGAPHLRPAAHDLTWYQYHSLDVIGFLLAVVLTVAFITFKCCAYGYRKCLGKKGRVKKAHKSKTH
# Source text: HLM UGT substrate cocktail, LC-MS/MS on UGT1A3
# [3] = target: T3, UGT1A4 (Homo sapiens, UniProt P22310); assay: HLM UGT substrate cocktail, LC-MS/MS; assay type: biochemical; settings: trifluoperazine 0.5 µM; UDPGA 5 mM; alamethicin; 0.25 mg/mL HLM; 37 °C; read-out: Trans-Resveratrol
# T3 construct: native enzyme in pooled human liver microsomes (alamethicin-treated), read by trifluoperazine glucuronidation
# T3 sequence (P22310 29-534): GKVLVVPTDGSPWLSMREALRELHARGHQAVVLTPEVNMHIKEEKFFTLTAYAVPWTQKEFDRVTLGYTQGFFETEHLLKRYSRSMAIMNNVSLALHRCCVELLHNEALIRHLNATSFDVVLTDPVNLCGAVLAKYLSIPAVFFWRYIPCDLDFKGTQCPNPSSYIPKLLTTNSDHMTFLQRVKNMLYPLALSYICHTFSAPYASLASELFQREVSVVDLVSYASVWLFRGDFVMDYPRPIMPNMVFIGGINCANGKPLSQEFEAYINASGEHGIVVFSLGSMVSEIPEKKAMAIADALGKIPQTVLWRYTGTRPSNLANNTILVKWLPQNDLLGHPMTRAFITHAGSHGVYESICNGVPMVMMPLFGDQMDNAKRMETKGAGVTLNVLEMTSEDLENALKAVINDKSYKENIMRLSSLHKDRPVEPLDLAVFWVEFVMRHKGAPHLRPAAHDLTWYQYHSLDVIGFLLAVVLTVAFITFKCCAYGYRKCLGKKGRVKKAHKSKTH
# Source text: HLM UGT substrate cocktail, LC-MS/MS on UGT1A4
# [4] = target: T4, UGT1A9 (Homo sapiens, UniProt O60656); assay: HLM UGT substrate cocktail, LC-MS/MS; assay type: biochemical; settings: mycophenolic acid 0.2 µM; UDPGA 5 mM; alamethicin; 0.25 mg/mL HLM; 37 °C; read-out: Trans-Resveratrol
# T4 construct: native enzyme in pooled human liver microsomes (alamethicin-treated), read by mycophenolic acid glucuronidation
# T4 sequence (O60656 26-530): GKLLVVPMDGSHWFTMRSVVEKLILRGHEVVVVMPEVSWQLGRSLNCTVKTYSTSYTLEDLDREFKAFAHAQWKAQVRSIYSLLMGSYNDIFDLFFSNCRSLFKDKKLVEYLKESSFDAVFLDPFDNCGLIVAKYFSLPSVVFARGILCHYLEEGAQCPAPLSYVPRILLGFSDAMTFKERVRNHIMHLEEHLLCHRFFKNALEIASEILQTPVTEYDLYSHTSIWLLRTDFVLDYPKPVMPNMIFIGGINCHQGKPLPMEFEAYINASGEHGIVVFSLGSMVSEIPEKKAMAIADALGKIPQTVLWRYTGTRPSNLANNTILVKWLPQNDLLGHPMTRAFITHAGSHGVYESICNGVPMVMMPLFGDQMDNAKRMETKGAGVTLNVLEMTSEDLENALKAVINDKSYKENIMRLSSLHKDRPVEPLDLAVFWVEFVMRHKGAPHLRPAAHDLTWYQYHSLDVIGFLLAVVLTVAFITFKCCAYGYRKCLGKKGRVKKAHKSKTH
# Source text: HLM UGT substrate cocktail, LC-MS/MS on UGT1A9
# [5] = target: T5, UGT1A6 (Homo sapiens, UniProt P19224); assay: HLM UGT substrate cocktail, LC-MS/MS; assay type: biochemical; settings: N-acetylserotonin 1 µM; UDPGA 5 mM; alamethicin; 0.25 mg/mL HLM; 37 °C; read-out: Trans-Resveratrol
# T5 construct: native enzyme in pooled human liver microsomes (alamethicin-treated), read by N-acetylserotonin glucuronidation
# T5 sequence (P19224 27-532): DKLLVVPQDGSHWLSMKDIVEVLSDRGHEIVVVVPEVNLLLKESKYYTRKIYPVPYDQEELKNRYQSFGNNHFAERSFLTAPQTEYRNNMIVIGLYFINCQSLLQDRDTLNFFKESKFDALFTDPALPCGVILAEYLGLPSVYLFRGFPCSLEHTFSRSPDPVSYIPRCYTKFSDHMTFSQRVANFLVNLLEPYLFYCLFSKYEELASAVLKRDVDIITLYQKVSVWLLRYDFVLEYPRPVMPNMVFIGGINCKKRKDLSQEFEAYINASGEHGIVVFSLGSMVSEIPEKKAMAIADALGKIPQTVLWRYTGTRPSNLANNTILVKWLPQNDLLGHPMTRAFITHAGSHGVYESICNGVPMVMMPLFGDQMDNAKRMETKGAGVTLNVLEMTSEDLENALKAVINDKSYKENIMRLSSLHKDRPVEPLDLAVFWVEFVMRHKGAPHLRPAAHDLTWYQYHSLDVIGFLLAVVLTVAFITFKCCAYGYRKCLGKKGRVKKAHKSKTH
# Source text: HLM UGT substrate cocktail, LC-MS/MS on UGT1A6
# [6] = target: T6, UGT1A1 (Homo sapiens, UniProt P22309); assay: HLM inhibition kinetics, Dixon / Lineweaver-Burk, LC-MS/MS; assay type: biochemical; settings: SN-38 0.5-10 µM; UDPGA; noncompetitive; read-out: trans-Resveratrol / Without Preincubation / Ki
# T6 construct: native enzyme in pooled human liver microsomes (alamethicin-treated), read by SN-38 glucuronidation
# T6 sequence (P22309 26-533): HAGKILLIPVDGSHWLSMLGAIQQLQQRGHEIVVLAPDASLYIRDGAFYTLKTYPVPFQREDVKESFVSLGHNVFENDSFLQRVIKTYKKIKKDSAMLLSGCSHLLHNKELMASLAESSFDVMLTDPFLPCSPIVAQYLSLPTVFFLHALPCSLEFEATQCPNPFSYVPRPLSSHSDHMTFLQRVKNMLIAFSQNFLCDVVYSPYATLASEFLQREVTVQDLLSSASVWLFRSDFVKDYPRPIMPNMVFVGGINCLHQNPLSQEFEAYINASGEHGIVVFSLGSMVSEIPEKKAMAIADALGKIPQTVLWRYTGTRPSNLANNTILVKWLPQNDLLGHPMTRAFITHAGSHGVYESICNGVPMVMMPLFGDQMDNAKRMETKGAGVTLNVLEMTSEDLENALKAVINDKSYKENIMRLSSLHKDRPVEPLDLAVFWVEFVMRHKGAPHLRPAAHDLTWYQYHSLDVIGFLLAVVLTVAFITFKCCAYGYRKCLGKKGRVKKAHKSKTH
# [7] = target: T7, UGT2B7 (Homo sapiens, UniProt P16662); assay: HLM UGT substrate cocktail, LC-MS/MS; assay type: biochemical; settings: naloxone 0.2 µM; UDPGA 5 mM; alamethicin; 0.25 mg/mL HLM; 37 °C; read-out: Trans-Resveratrol
# T7 construct: native enzyme in pooled human liver microsomes (alamethicin-treated), read by naloxone glucuronidation
# T7 sequence (P16662 24-529): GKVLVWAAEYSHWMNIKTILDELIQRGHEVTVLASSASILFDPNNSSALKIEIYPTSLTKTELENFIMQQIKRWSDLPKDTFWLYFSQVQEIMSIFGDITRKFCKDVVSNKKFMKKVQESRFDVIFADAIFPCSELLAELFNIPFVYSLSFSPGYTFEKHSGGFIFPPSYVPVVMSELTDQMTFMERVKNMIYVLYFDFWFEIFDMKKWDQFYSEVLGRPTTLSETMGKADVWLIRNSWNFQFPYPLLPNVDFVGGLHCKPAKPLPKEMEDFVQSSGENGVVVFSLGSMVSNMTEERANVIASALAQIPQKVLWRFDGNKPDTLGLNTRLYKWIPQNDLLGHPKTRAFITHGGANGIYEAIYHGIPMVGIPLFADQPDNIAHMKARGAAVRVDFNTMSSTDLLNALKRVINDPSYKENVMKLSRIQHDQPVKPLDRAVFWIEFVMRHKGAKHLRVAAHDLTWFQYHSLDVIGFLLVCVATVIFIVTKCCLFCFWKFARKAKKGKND
# Source text: HLM UGT substrate cocktail, LC-MS/MS on UGT2B7
# [8] = tested on: T1, CYP3A; assay: HLM substrate cocktail, LC-MS/MS; assay type: biochemical, Homo sapiens; settings: midazolam 0.1 µM, NADPH-generating system, 0.25 mg/mL HLM, 37 °C, without 30 min preincubation
# Source text: HLM substrate cocktail, LC-MS/MS on CYP3A
# [9] = target: T6, UGT1A1; assay: HLM UGT substrate cocktail, LC-MS/MS; assay type: biochemical; settings: SN-38 0.5 µM, UDPGA 5 mM, alamethicin, 0.25 mg/mL HLM, 37 °C
# Source text: HLM UGT substrate cocktail, LC-MS/MS on UGT1A1
# [10] = target: T8, CYP2A6 (Homo sapiens, UniProt P11509); assay: HLM substrate cocktail, LC-MS/MS; assay type: biochemical; settings: coumarin 1 µM; NADPH-generating system; 0.25 mg/mL HLM; 37 °C; without 30 min preincubation; read-out: Trans-resveratrol (μM) / Without Preincubation
# T8 construct: native enzyme in pooled human liver microsomes, read by coumarin 7-hydroxylation
# T8 sequence (P11509 1-494): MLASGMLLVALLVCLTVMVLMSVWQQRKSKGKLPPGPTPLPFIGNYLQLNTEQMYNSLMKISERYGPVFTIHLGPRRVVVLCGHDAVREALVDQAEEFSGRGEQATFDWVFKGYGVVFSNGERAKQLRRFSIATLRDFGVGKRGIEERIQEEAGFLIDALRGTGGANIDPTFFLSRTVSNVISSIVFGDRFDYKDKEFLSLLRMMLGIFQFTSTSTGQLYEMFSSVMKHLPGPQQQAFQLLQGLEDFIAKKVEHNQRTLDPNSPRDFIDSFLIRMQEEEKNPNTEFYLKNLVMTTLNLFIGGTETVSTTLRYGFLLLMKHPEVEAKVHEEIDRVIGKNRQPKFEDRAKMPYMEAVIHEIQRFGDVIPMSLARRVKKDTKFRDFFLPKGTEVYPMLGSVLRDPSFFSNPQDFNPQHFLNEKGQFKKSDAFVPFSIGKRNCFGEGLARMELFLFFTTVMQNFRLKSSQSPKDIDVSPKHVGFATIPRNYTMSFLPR
# Source text: HLM substrate cocktail, LC-MS/MS on CYP2A6
Ki [1] [µM],IC50 [2] [µM],IC50 [3] [µM],IC50 [4] [µM],IC50 [5] [µM],Ki [6] [µM],IC50 [7] [µM],IC50 ([8]; read-out: Trans-resveratrol (μM) / Without Preincubation) [µM],IC50 ([9]; read-out: Trans-Resveratrol) [µM],IC50 [10] [µM],IC50 ([8]; read-out: Cis-resveratrol (μM) / Without Preincubation) [µM],IC50 ([9]; read-out: Cis-Resveratrol) [µM],SMILES
23.8 ± 2.3,> 50,> 50,> 50,> 50,27.4 ± 3.6,> 50,29.2 ± 4.5,9.57 ± 1.6,> 50,,,"Oc1ccc(/C=C/c2cc(O)cc(O)c2)cc1 [A, 3,5,4′-Trihydroxystilbene]"
,> 50,> 50,> 50,> 50,,> 50,,,> 50,> 50,> 50,"Oc1ccc(/C=C\c2cc(O)cc(O)c2)cc1 [B, 3,5,4′-Trihydroxystilbene]"
